Consider two molecules from US20120258038A1, “USES OF APOPTOTIC CELL-TARGETING PEPTIDES, LABEL SUBSTANCES AND LIPOSOMES CONTAINING A THERAPEUTIC AGENT FOR PREVENTING, TREATING OR THERAPEUTICALLY DIAGNOSING APOPTOSIS-RELATED DISEASES” (Kyungpook National University Industry-Academic Cooperation …, priority 2009, published 2012).

Test [1] relates to A549 cells. As to the kind of experiment: FACS analysis of binding to apoptotic cells. Type of test: cell-based, human. Particulars: for percentage of cells bound/stained, early stage of apoptosis (fraction Q4) / percentage of cells bound/stained, later stage of apoptosis (fraction Q2): A549 cells treated with 50 μM etoposide for 15 hours, PI co-staining. The method, then: As another way of confirming the binding of the inventive peptide to apoptotic cells, apoptotic cells were treated with the inventive peptide labeled with fluorescein, and the binding was confirmed through FACS analysis. First, apoptosis was induced by treating A549 cells with 50 μM etoposide for 6 to 15 hours. The apoptotic cells or normal cells were reacted with the inventive ApoPep-1 peptide(5 μM) or a control peptide at the same concentration, labeled with fluorescein, at 4° C. for 1 hour. Meanwhile, the cells were reacted with fluorescein-labeled annexin V at room temperature for 15 minutes. After simultaneously staining the cells with propodium iodide (PI), followed by washing with PBS, FACS analysis was performed using a FACS instrument (Becton Dickinson).

The test system of test [2] is etoposide-treated apoptotic cells (A549, H460, HeLa, L132, RAW). As to the kind of experiment: Microscopic observation of binding of the peptide to apoptotic cells. The conditions noted are these: for labeling of etoposide-treated apoptotic cells: etoposide 50 μM; for labeling of etoposide-treated apoptotic cells / labeling of normal cells not treated with etoposide: fluorescence microscopy, fluorescein-labeled peptide 10 μM, alexa 594-labeled annexin V; for labeling of normal cells not treated with etoposide: 4° C., 1 hour. It counts as cell-based. The method, then:
Cells were cultured in a chamber slide (Nalgen Nunc), and treated with etoposide (Sigma) at a concentration of 50 μM for a given period of time to induce apoptosis (A549 and HeLa cells: for 15 hours, H460 cells: 24 hours, L132 cells: 3 hours, and RAW cells: 6 hours). The cells were cultured in RMPI-1640 medium (A549 and H460 cells) or DMEM medium (HeLa, L132 and RAW cells) containing antibiotics (penicillin and streptomycin) and 10% FBS. Meanwhile, all the cells were subcultured every 3 or 4 days. The apoptosis-induced apoptotic cells were washed with PBS, and blocked with 1% BSA at 37° C. for 30 minutes. Then, the cells were reacted with 10 μM of the peptide labeled with fluorescein, at 4° C. for 1 hour. After being washed, the cells were reacted with an annexin V reaction buffer solution containing alexa 594 (fluorescent reagent)-labeled annexin V (Molecular Probes) at room temperature for 15 minutes. The cells were washed with PBS, and then fixed with 4% paraformaldehyde for 5 minutes. Then, after counterstaining using the nuclear stain 4′,6-diamidino-2-phenylindole (DAPI), followed by treatment with a mounting solution (Molecular Probes), images of the cells were obtained under a fluorescence microscope (Zeiss).

The subject of test [3] is apoptotic A549 cells. As to the kind of experiment: Competitive inhibition of binding to apoptotic cells by annexin V pre-treatment. It counts as cell-based, human. On the procedure:
In order to further investigate the binding properties of the inventive peptide (ApoPep-1) to apoptotic cells, competitive inhibition by annexin V was measured. For this, first, apoptotic A549 cells were pretreated with annexin V, not labeled with fluorescence, at concentrations of 0, 200 and 1000 μM. Then, after the cells were reacted with fluorescence-labeled annexin V under the same condition as described in Example <2-1>, the binding of the cells was observed under a fluorescence microscope.
Meanwhile, apoptotic A549 cells were pre-treated with annexin V, not labeled with fluorescence, at a concentration of 1000 μM. Then, after the cells were reacted with fluorescence-labeled peptide under the same condition as described in Example <2-1>, the binding of the cells was observed under a fluorescence microscope.

Take “CQRPPR (Apoptotic cell-targeting peptide, ApoPep-1)”: in test [1] (A549 cells not treated with etoposide, 5 μM, fluorescein-labeled), the “binding to normal cells” value is recorded as “almost nonexistent”. Moreover, in test [1], the “percentage of cells bound/stained, early stage of apoptosis (fraction Q4)” value is listed as 90.3% and the “percentage of cells bound/stained, later stage of apoptosis (fraction Q2)” value amounted to 7.2%. Moreover, in test [2], the “labeling of etoposide-treated apoptotic cells” value is on record as “labeling was observed” and the “labeling of normal cells not treated with etoposide” value is listed as “no labeling was observed”. In addition, the “location of binding compared with annexin V (merged images)” value in test [2] (etoposide-treated apoptotic cells) is “at the same locations”. Further, in test [3] (annexin V not labeled with fluorescence, 1000 μM), the “binding of the peptide after pre-treatment with annexin V” value is “not inhibited”.

B1: annexin V: protein having a molecular weight of 36 kDa, binds to phosphatidylserine with strong affinity (protein, UniProt P08758 2-320, looked up)
Annexin A5: AQVLRGTVTDFPGFDERADAETLRKAMKGLGTDEESILTLLTSRSNAQRQEISAAFKTLFGRDLLDDLKSELTGKFEKLIVALMKPSRLYDAYELKHALKGAGTNEKVLTEIIASRTPEELRAIKQVYEEEYGSSLEDDVVGDTSGYYQRMLVVLLQANRDPDAGIDEAQVEQDAQALFQAGELKWGTDEEKFITIFGTRSVSHLRKVFDKYMTISGFQIEETIDRETSGNLEQLLLAVVKSIRSIPAYLAETLYYAMKGAGTDDHTLIRVMVSRSEIDLFNIRKEFRKNFATSLYSMIKGDTSGDYKKALLLLCGEDD
For the molecule B1, in test [1], the “percentage of cells bound/stained, early stage of apoptosis (fraction Q4)” value is recorded as 64.3% and the “percentage of cells bound/stained, later stage of apoptosis (fraction Q2)” value is 9.4%. In addition, in test [2], the “labeling of etoposide-treated apoptotic cells” value is on record as “labeling was observed” and the “labeling of normal cells not treated with etoposide” value is listed as “no labeling was observed”. Moreover, the “fluorescence of fluorescence-labeled annexin V after pre-treatment with annexin V not labeled with fluorescence” value in test [3] (pre-treatment 0, 200 and 1000 μM, high concentration) is listed as “significantly decreased”.
